This is an account of results in PMC6650905, “Development of a Novel Series of Anticancer and Antidiabetic: Spirothiazolidines Analogs” (Molecules, 2019).

The target of assay [1] is T1, alpha-amylase (α–amylase).
T1 construct: commercial preparation from Sigma-Aldrich
Nature of the assay: DNS colorimetric assay. The note with it: starch 0.5%, 20 mM phosphate pH 6.9, 25 °C, 10 min preincubation. The format is biochemical.

For assay [2], the target named is T2, alpha-glucosidase (Saccharomyces cerevisiae).
T2 construct: gene MAL12; commercial preparation from Sigma-Aldrich
As to the kind of experiment: p-nitrophenol release, absorbance […] nm. It is filed as biochemical. The note with it: p-nitrophenyl alpha-D-glucopyranoside 5 mM stock (20 μL), 100 mM phosphate pH 6.8, 37 °C, 15 min preincubation.

Turning to `Nc1ccc(N2C(=O)CSC23CCCCC3)cc1` [compound 1, 4-(4-aminophenyl)-1-thia-4-azaspiro[4.5]decan-3-one], the “** IC50” value in assay [1] is given as 297.8 µg/mL; in assay [2] it was 120.22 µg/mL.

On to `NN=C1CSC2(CCCCC2)N1c1ccc(N)cc1` [compound 2, 4-(3-hydrazono-1-thia-4-azaspiro[4.5]decan-4-yl)aniline], for which the “** IC50” value in assay [1] is 421.42 µg/mL; in assay [2], 363.67 µg/mL.

For `N#Cc1c(N)nc2c(c1-c1ccc(Cl)cc1)SC1(CCCCC1)N2c1ccc(N)cc1` [compound 6, 5′-amino-3′-(4-aminophenyl)-7′-(4-chlorophenyl)-3′H-spiro[cyclohexane-1,2′-thiazolo[4,5-b]pyridine]-6′-carbonitrile], the “** IC50” value in assay [1] came out at 94.9 µg/mL; in assay [2] it was 63.6 µg/mL.

For `N#Cc1c(-c2ccc(Cl)cc2)c2c([nH]c1=O)N(c1ccc(N)cc1)C1(CCCCC1)S2` [compound 7, 3′-(4-aminophenyl)-7′-(4-chlorophenyl)-5′-oxo-4′,5′-dihydro-3′H-spiro[cyclohexane-1,2′-thiazolo[4,5-b]pyridine]-6′-carbonitrile], the “** IC50” value is listed as 239.37 µg/mL in assay [1] and 117.36 µg/mL in assay [2].

On to `Nc1ccc(N2C(=O)C(=Cc3ccc(Cl)cc3)SC23CCCCC3)cc1` [compound 8, 4-(4-aminophenyl)-2-(4-chlorobenzylidene)-1-thia-4-azaspiro[4.5]decan-3-one], for which the results for the “** IC50” value in assay [1] and in assay [2] were 199.01 µg/mL and 114.45 µg/mL, respectively.

Regarding `Nc1ccc(N2c3[nH]nc(-c4ccc(Cl)cc4)c3SC23CCCCC3)cc1` [compound 9, 4-(3′-(4-chlorophenyl)-spiro[cyclohexane-1,5′-pyrazolo[3,4-d]thiazol]-6′ (1′H)-yl)aniline], the results for the “** IC50” value in assay [1] and in assay [2] were 58.85 µg/mL and 52.47 µg/mL, respectively.

For `N#Cc1c(-c2ccc(Cl)cc2)c2c(n(CCO)c1=O)N(c1ccc(N)cc1)C1(CCCCC1)S2` [compound 13, 3′-(4-aminophenyl)-7′-(4-chlorophenyl)-4′-(2-hydroxyethyl)-5′-oxo-4′,5′-dihydro-3′H-spiro[cyclohexane-1,2′-thiazolo[4,5-b]pyridine]-6′-carbonitrile], the “** IC50” value in assay [1] is on record as 271.3 µg/mL; in assay [2] it was 118.11 µg/mL.

In the case of `CCOC(=O)Cn1c2c(c(-c3ccc(Cl)cc3)c(C#N)c1=O)SC1(CCCCC1)N2c1ccc(N)cc1` [compound 16, Ethyl 2-(3′-(4-aminophenyl)-7′-(4-chlorophenyl)-6′-cyano-5′-oxo-3′,5′-dihydro-4′H-spiro [cyclohexane-1,2′-thiazolo[4,5-b]pyridin]-4′-yl)acetate], the “** IC50” value in assay [1] was more than 1000 µg/mL; in assay [2], 570.4 µg/mL.
